Assay results reported in US20230146455A1, “TREATMENT OF INFLAMMATORY DISEASES WITH PEPTIDES AND PHARMACEUTICAL COMPOSITIONS” (Yuyu Pharma, Inc., priority 2020, published 2023).
“And” between values parts separate entries of the source, which are not always exact repeats. Identical values can stand only once. Where a SMILES comes first, the peptide text is derived from it. [ ]: non-standard residue; d: D form. Hyp = O=C(O)[C@@H]1C[C@@H](O)CN1

How the values were obtained:
[1] = system: IL-6 cytokine release in poly I:C stimulated primary human corneal epithelial cells; assay: Soluble IL-6 cytokine release in poly I:C stimulated primary human corneal epithelial cells by ELISA (Example 6); type: cell-based
Text: To determine the effect of compound by assessing the soluble IL-6 cytokine release in poly I:C stimulated primary human corneal epithelial cells by ELISA. • Test System: Primary Human Corneal Epithelial cells • Assay Format: 96-well plate format • Method of Detection: Enzyme-linked immunosorbent assay • Assay Controls: Hinokitiol Assay protocol as shown below was used to determine the significant effect of test compounds. The data was statistically analyzed by one-way ANOVA with a Bonferroni post test comparing all the columns. The significance was represented by the p value.

[2] = system: IL-6 release in human PBMCs stimulated by poly(I:C), LPS or PMA/Ionomycin; assay: IL-6 ELISA in stimulated human PBMCs, 2nd pilot study (Example 8); type: cell-based; conditions: for IL-6 (ELISA), individual wells / IL-6 (ELISA), Mean: 24 hr
Procedure: Human PBMCs frozen in a cryopreserve was thawed, washed with Hank's Balanced Salt Solution containing 10% Fetal bovine serum, and seeded onto a 24-well plate at a density of 1×10^6 cells/well with culture RPMI media containing 10% Fetal bovine serum in growth media in a 24 well plate for 12, 24, and 48 hrs and maintained at 37° C. in an atmosphere of 95% air and 5% CO2.
Human PBMCs was pretreated with a test compound; YDE-011 at 30 uM, 1 μM for 2 h before stimulation. An equal volume of 0.5% DMSO was used as a vehicle control. […] The supernatants from treated cells were harvested at 24 h and placed in 96 well for Human IL-6 ELISAS measurement according to the manufacturer's instructions (Invitrogen, CA, USA). […]
IL-6 measurement was performed by the sandwich ELISA method. The capture antibody was coated on a 96-well plate (Corning™ Costar™ 9018, NY, USA) at 100 ul/well and incubated overnight at 4° C. The interaction was blocked at room temperature for 2 h to prevent non-specific binding of the antigen-antibody. Then, the plate was incubated overnight at 4° C. with 1:200 diluted cell supernatants and standard dilute serial dilutions at 100 ul/well. Detection antibody was dispensed into the plate at 100 ul/well, and then allowed to incubate at a room temperature for 1 h. Finally, streptavidin-HRP (100 ul/well) was incubated at room temperature for 30 min. […] The sample reading was measured at 450 nm wavelength and 570 nm, and the quantification of the sample was converted as concentration (ng/ml) based on the standard curve extrapolation.

[3] = system: rats with ELGE dry eye condition; assay: Corneal damage induced by ELGE in rats; type: in vivo, rat

Row | SMILES | Poly I:C induced IL-6 cytokine release (in words) [1] | tested concentrations with significant attenuation of IL-6 cytokine release [1] | IL-6 induction in PBMCs (in words) ([2]; 1 uM, poly I:C, LPS or PMA/Ionomycin) | IL-6 (ELISA), individual wells ([2]; PBMC + LPS(5 ug/ml) + YDE-011 1 uM) | IL-6 (ELISA), Mean ([2]; PBMC + LPS(5 ug/ml) + YDE-011 1 uM, LPS alone Mean 26093.3) | IL-6 (ELISA), individual wells ([2]; PBMC + LPS(5 ug/ml) + YDE-011 30 uM) | IL-6 (ELISA), Mean ([2]; PBMC + LPS(5 ug/ml) + YDE-011 30 uM, LPS alone Mean 26093.3) | IL-6 (ELISA), individual wells ([2]; PBMC + PMA(1 ng/ml)/Ionomycin(0.5 ug/ml) + YDE-011 1 uM) | IL-6 (ELISA), Mean ([2]; PBMC + PMA(1 ng/ml)/Ionomycin(0.5 ug/ml) + YDE-011 1 uM, stimulant alone Mean 4075.5) | IL-6 (ELISA), individual wells ([2]; PBMC + PMA(1 ng/ml)/Ionomycin(0.5 ug/ml) + YDE-011 30 uM) | IL-6 (ELISA), Mean ([2]; PBMC + PMA(1 ng/ml)/Ionomycin(0.5 ug/ml) + YDE-011 30 uM, stimulant alone Mean 4075.5) | IL-6 (ELISA), individual wells ([2]; PBMC + Poly I:C(25 ug/ml) + YDE-011 1 uM) | IL-6 (ELISA), Mean ([2]; PBMC + Poly I:C(25 ug/ml) + YDE-011 1 uM, Poly I:C alone Mean 21429.5) | IL-6 (ELISA), individual wells ([2]; PBMC + Poly I:C(25 ug/ml) + YDE-011 30 uM) | IL-6 (ELISA), Mean ([2]; PBMC + Poly I:C(25 ug/ml) + YDE-011 30 uM, Poly I:C alone Mean 21429.5) | IL-6 induction in PBMCs (in words) ([2]; higher concentration) | IL-6 levels induced by LPS or poly I:C (in words) ([2]; pilot studies) | corneal damage induced by ELGE (in words) [3]
1 | CC(C)C[C@H](NC(=O)CNC(=O)[C@H](CC(C)C)NC(=O)[C@H](CCC(N)=O)NC(=O)CNC(=O)[C@@H]1C[C@@H](O)CN1)C(=O)N[C@@H](C)C(=O)NCC(=O)N1CCC[C@H]1C(=O)N[C@@H](CCCCN)C(=O)O [YDE-011] (H-[Hyp]GQLGLAGPK-OH) | attenuate Poly I:C induced of IL-6 cytokine release in a dose dependent manner | 30 μM, 10 μM, 1 μM and 0.1 μM | effectively and significantly reduced IL-6 induction | 14532.1 and 12561.2 | 13546.7 | 23199.5 and 18310.8 | 20755.2 | 2817.2 and 3828.2 | 3322.7 | 3114.6 and 3025 | 3069.8 | 13701 and 12585.1 | 13143.1 | 39230.7 and 30634.7 | 34932.7 | diminished at a higher concentration | significantly reduced IL-6 levels induced by LPS or poly I:C | 
2 | CC(C)C[C@H](NC(=O)[C@H](CCC(N)=O)NC(=O)CNC(=O)[C@@H]1C[C@@H](O)CN1)C(=O)NCC(=O)O [YDE-043] (H-[Hyp]GQLG-OH; N-terminus and C-terminus assumed) | attenuate Poly I:C induced of IL-6 cytokine release in a dose dependent manner | 30 μM, 10 μM, 1 μM and 0.1 μM |  |  |  |  |  |  |  |  |  |  |  |  |  |  |  | effective in improving corneal damaged induced by ELGE
